The target of the experiment is T. cruzi lipoamide dehydrogenase (TcLipDH) (Trypanosoma cruzi, UniProt P90597). The experiment in a line: Recombinant enzyme kinetics. The format is biochemical.
Sequence of T. cruzi lipoamide dehydrogenase (TcLipDH) (P90597 whole entry): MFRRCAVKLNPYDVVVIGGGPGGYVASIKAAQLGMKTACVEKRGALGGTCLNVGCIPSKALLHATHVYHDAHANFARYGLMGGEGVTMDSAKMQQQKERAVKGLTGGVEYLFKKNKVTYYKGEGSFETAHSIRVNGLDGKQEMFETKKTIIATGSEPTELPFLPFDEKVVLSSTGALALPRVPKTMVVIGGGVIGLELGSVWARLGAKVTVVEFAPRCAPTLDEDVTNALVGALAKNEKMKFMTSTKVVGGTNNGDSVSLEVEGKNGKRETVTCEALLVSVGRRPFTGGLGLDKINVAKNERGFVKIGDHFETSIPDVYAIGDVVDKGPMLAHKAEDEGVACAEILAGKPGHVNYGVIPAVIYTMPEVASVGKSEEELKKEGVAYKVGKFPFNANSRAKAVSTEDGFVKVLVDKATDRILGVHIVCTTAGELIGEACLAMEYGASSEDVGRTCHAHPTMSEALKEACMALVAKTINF

In the case of `O=C1C(c2ccccc2)=C(c2ccccc2)C(=O)c2ccccc21` [DPNQ, 2,3-diphenyl-1,4-naphthoquinone], the Ki amounted to 29 µM.

A word on the Ki: it is the equilibrium dissociation constant of an inhibitor or competing ligand from its target.

(Values after article PMC2929754 (The Journal of parasitology, 2009).)
